Reference: ChEMBL document CHEMBL1129671, “Substituted (pyrroloamino)pyridines: potential agents for the treatment of Alzheimer's disease” (J Med Chem, 1996)

Experiments:
[1] = biological target: Muscarinic acetylcholine receptor; experiment: Inhibition of radioligand [3H]QNB binding to muscarinic acetylcholine receptor in the rat forebrain in the presence of zinc
Mus musculus [2] = experiment: Evaluated for the prevention of TBZ ptosis by intraperitoneal administration in mice; type: functional; details: ip
Mus musculus [3] = experiment: Antagonistic activity against scopolamine-induced behavioral deficits in mice by subcutaneous administration at a concentration of 0.16 mg/kg; type: functional
Mus musculus [4] = experiment: Antagonistic activity against scopolamine-induced behavioral deficits in mice by subcutaneous administration at a concentration of 0.31 mg/kg; type: functional
Mus musculus [5] = experiment: Antagonistic activity against scopolamine-induced behavioral deficits in mice by subcutaneous administration at a concentration of 0.63 mg/kg; type: functional
[6] = biological target: Muscarinic acetylcholine receptor; experiment: Inhibition of radioligand [3H]QNB binding (competitive inhibition) to muscarinic acetylcholine receptor in the rat forebrain in the absence of zinc
Mus musculus [7] = experiment: Antagonistic activity against scopolamine-induced behavioral deficits in mice by subcutaneous administration at a concentration of 2.5 mg/kg; type: functional
Mus musculus [8] = experiment: Antagonistic activity against scopolamine-induced behavioral deficits in mice by subcutaneous administration at a concentration of 5.0 mg/kg; type: functional
Mus musculus [9] = experiment: Antagonistic activity against scopolamine-induced behavioral deficits in mice by subcutaneous administration at a concentration of 1.25 mg/kg; type: functional
Mus musculus [10] = experiment: (§1) Antagonistic activity against scopolamine-induced behavioral deficits in mice by subcutaneous administration at a concentration of 5 mg/kg; type: functional
Mus musculus [11] = experiment: as §1; type: functional; remark: listed apart in the source
Mus musculus [12] = experiment: Antagonistic activity against scopolamine-induced behavioral deficits in mice by subcutaneous administration at a concentration of 0.02 mg/kg; type: functional
Mus musculus [13] = experiment: Antagonistic activity against scopolamine-induced behavioral deficits in mice by subcutaneous administration at a concentration of 0.04 mg/kg; type: functional

IC50 [1] [µM] | IC50 [6] [µM] | Structure (SMILES) | ED50 (Mus musculus [2]) [mg/kg] | Response (Mus musculus [3]) [%] | Response (Mus musculus [4]) [%] | Response (Mus musculus [5]) [%] | Response (Mus musculus [7]) [%] | Response (Mus musculus [8]) [%] | Response (Mus musculus [9]) [%] | Response (Mus musculus [10]) [%] | Response (Mus musculus [11]) [%] | Response (Mus musculus [12]) [%] | Response (Mus musculus [13]) [%]
> 1000 | – | CC(=O)N(c1ccncc1)n1cccc1 | – | – | – | – | – | – | – | – | – | – | –
721 | 86 | O=Cc1cccn1Nc1ccncc1 | > 20 | 20 | 27 | 43 | – | – | – | – | – | – | –
39 | 26 | CN(c1ccncc1)n1cccc1CO | > 20 | – | – | – | – | – | – | – | – | – | –
17 | 1.6 | CN(c1ccncc1)n1cccc1/C=C/c1ccccc1 | > 20 | – | – | – | 20 | 33 | – | – | – | – | –
24 | 11 | CC(O)c1ccn(N(C)c2ccncc2)c1 (centres undefined) | 10 | 20 | 20 | – | – | – | 27 | – | – | – | –
138 | 11 | CCCN(c1ccncc1)n1ccc(C=O)c1 | > 20 | – | – | – | – | – | – | – | – | – | –
13.5 | 3.5 | c1ccc(CN(c2ccncc2)n2cccc2)cc1 | > 20 | 20 | – | – | – | – | – | – | – | – | –
8.1 | 3 | CN(c1ccncc1)n1cccc1CCc1ccccc1 | > 20 | – | 33 | – | – | – | – | – | – | – | –
184 | 43 | c1ccn(Nc2ccncc2)c1 | > 20 | – | 21 | 21 | 47 | – | – | 36 | – | – | –
43 | 6.9 | CN(c1ccncc1)n1cccc1Cl | > 20 | – | – | – | – | – | – | – | – | – | –
22 | 6.4 | CCc1cccn1N(C)c1ccncc1 | > 20 | – | – | 20 | – | 27 | – | – | – | – | –
173 | 23 | CC(O)c1cccn1N(C)c1ccncc1 (centres undefined) | > 20 | – | – | – | – | – | – | – | – | – | –
21.5 | 6.5 | CCCN(c1ccncc1)n1cccc1 | > 20 | 33 | – | 27 | 27 | – | – | – | – | – | –
27 | 6.9 | C=CCN(c1ccncc1)n1cccc1 | > 20 | 20 | – | 20 | – | – | – | – | – | – | –
185 | 33 | CN(c1ccncc1)n1ccc(C=O)c1 | > 20 | – | 20 | 33 | – | 47 | 29 | – | – | – | –
295 | 24 | CN(c1ccncc1)n1cccc1C#N | > 20 | – | – | – | – | 20 | 40 | – | – | – | –
52 | 24 | CN(c1ccncc1)n1cccc1C=O | > 20 | 50 | 53 | 27 | 50 | 31 | 60 | – | – | – | –
8.6 | 2.6 | CCCN(c1ccncc1)n1cccc1Cl | > 20 | – | – | – | 27 | – | – | – | – | – | –
70 | 13 | CN(c1ccncc1)n1cccc1 | > 20 | – | – | – | – | – | – | 1 | 29 | – | –
12.5 | 4 | CCCCN(c1ccncc1)n1cccc1 | > 20 | – | – | 20 | – | – | – | – | – | – | –
76.4 | 9 | C#CCN(c1ccncc1)n1cccc1 | > 20 | 47 | 27 | – | – | – | – | – | – | 20 | 27
33 | 5.4 | CCN(c1ccncc1)n1cccc1Cl | > 20 | – | – | 20 | 27 | – | 36 | – | – | – | –
51 | 14 | CCCN(c1ccncc1)n1cccc1C=O | > 20 | – | – | – | – | – | – | – | – | – | –
120 | 9.5 | CCN(c1ccncc1)n1cccc1 | > 20 | – | – | – | – | – | – | – | – | – | –
76.2 | 13 | Clc1cccn1Nc1ccncc1 | > 20 | – | – | – | – | – | – | – | – | – | –

Structure (SMILES) | IC50 [1] [µM] | IC50 [6] [µM] | ED50 (Mus musculus [2]) [mg/kg] | Response (Mus musculus [3]) [%] | Response (Mus musculus [4]) [%] | Response (Mus musculus [5]) [%] | Response (Mus musculus [7]) [%] | Response (Mus musculus [8]) [%] | Response (Mus musculus [9]) [%] | Response (Mus musculus [10]) [%] | Response (Mus musculus [11]) [%] | Response (Mus musculus [12]) [%] | Response (Mus musculus [13]) [%]
CN(C)CCC=C1c2ccccc2CCc2ccccc21 [AMITRIPTYLINE] | 0.3 | – | 1.5 | – | – | – | – | – | – | – | – | – | –
